This passage reports IC50 results from patent US10407422B2, “Triazolopyridine inhibitors of myeloperoxidase” (priority 2015, dated 2019).

Holding throughout (assay type): biochemical
The target in assay [1] is T1, myeloperoxidase (MPO) (Homo sapiens (Human), UniProt P05164). Kind of assay: MPO peroxidation assay (Amplex Red assay). The following applies: potency range class. An outline of the steps: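 IC50 values come from a four-parameter fit of rates taken from the linear 180-540 s portion of a 15 min kinetic read of resorufin (Ex 535/Em 590 nm). Amplex Red (200 μM) plus 10 mM H2O2 was added after a 10 min room-temperature preincubation of inhibitor with 200 pM MPO and 40 nM H2O2 in 100 mM KPi, pH 7.4.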

Assay [2] deals with T1, myeloperoxidase (MPO). Kind of assay: MPO chlorination assay (APF assay). The settings on record: potency range class. The essentials: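 Chlorinating activity followed by APF cleavage to fluorescein (485/535 nm, 3 min kinetic read) after adding APF and 10 μM H2O2. Beforehand, 200 pM enzyme, compound and 120 mM NaCl sat 10 min at room temperature in 100 mM KPi, pH 7.4. Initial-rate slopes gave % inhibition; IC50 by Hill-slope fit.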

Assay [3] concerns the target eosinophil peroxidase (EPX) (Homo sapiens (Human), UniProt P11678). Kind of assay: EPX bromination assay. The procedure:
[formula] where A=minimal Y value (activity level of inhibited sample), B=maximal Y value (activity level of uninhibited sample), C=Log IC50, D=Hill Slope, x=concentration of inhibitor. EPX Bromination Assay
EPX bromination activity was measured in 100 mM KPi (pH 7.4) by monitoring the H2O2 catalyzed formation of 3-bromo tyrosine from tyrosine and potassium bromide. A 50 μl mixture of 0.6 μM EPX (Lee Biosolutions Cat. #342-60) was added to 100 nL inhibitor in 100% DMSO in a 384 well REMP plate. Enzyme and compound were preincubated for ten minutes at room temperature.
After the ten minute preincubation of enzyme and inhibitor, 25 μL of a mixture containing 400 μM tyrosine and 1200 μM potassium bromide was added to the plate containing enzyme and inhibitor, followed by the addition of 25 μl of 20 μM H2O2. The reaction was allowed to proceed for 15 minutes, at which time it was quenched with 10 μL of 20% TCA. The final concentrations of all components were 0.3 μM EPX, 100 μM tyrosine, […], 5 μM H2O2, 0.1% DMSO, 2.0% TCA.
IC50 values were determined by determining the peak areas of 3-bromotyrosine present at the end of the 15 minute reaction and fitting the data to:
[formula] where A=minimal Y value (activity level of inhibited sample), B=maximal Y value (activity level of uninhibited sample), C=Log IC50, D=Hill Slope, x=concentration of inhibitor.
Reversed-phase analysis was performed on a Waters Acquity Ultra Performance LC system using an Acquity UPLC BEH C18 […], 2.1×50 mm analytical column. The column was maintained at 60° C. Samples were eluted using a gradient of 0%-100% B over 2.5 minutes, followed by equilibration with 100% A for 1 minute where A consisted of 0.1% TFA and B consisted of 90% MeOH/0.1% TFA at a flow rate of 0.6 mL/min. The retention time of 3-bromo tyrosine was 1.22 min (Method A).

Sequence of eosinophil peroxidase (EPX) (P11678 140-715): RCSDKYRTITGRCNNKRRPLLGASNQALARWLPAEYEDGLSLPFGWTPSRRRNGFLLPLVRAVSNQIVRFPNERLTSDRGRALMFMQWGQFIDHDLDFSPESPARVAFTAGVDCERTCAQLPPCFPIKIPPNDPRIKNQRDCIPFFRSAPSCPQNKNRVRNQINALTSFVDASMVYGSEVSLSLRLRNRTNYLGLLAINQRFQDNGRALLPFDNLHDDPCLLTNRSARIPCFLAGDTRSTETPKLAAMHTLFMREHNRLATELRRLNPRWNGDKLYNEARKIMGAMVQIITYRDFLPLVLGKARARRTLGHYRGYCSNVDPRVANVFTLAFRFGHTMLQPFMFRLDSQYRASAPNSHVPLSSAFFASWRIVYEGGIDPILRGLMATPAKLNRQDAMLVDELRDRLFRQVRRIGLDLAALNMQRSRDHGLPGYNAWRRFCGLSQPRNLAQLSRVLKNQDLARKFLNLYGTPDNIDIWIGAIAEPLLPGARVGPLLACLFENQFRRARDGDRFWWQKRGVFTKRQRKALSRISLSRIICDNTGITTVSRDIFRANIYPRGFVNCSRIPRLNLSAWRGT
T1 sequence (P05164 49-745): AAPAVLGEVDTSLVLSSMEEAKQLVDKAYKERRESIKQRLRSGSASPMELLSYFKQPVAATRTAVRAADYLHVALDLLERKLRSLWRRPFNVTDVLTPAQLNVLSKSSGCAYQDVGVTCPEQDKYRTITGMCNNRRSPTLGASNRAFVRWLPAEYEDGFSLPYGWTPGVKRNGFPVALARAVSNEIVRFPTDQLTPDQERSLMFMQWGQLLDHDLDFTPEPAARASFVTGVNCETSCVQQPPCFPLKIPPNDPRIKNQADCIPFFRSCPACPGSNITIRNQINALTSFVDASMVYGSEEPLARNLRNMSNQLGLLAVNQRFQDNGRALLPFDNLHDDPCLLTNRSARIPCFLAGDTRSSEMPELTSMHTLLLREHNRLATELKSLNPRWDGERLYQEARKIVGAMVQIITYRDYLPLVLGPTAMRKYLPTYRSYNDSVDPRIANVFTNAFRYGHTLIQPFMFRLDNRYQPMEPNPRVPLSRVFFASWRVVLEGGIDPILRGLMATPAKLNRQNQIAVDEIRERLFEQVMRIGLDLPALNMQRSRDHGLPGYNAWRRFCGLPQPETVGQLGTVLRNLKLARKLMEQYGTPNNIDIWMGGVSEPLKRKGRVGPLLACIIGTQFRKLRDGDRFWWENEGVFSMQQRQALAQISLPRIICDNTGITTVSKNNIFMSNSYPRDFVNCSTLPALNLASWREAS

`Nc1cc(Cc2cnn(-c3ccc(F)cc3)c2)c2nn[nH]c2n1` [Example 1, 7-((1-(4-Fluorophenyl)-1H-pyrazol-4-yl)methyl)-3H-[1,2,3]triazolo[4,5-b]pyridin-5-amine]: the results for the IC50 (at myeloperoxidase (MPO) [1]; against myeloperoxidase (MPO) [2]; in assay [3]) were 1 to 100 nM, 1 to 100 nM and 19 nM, respectively.

Consider `Nc1cc(Cc2cnn(-c3ccccc3)c2)c2nn[nH]c2n1` [Example 5, 7-((1-Phenyl-1H-pyrazol-4-yl)methyl)-3H-[1,2,3]triazolo[4,5-b]pyridin-5-amine], for which the IC50 against myeloperoxidase (MPO) [1] is 1 to 100 nM; at myeloperoxidase (MPO) [2], 1 to 100 nM; in assay [3], 11 nM.

Regarding `Nc1cc(Cc2cnn(Cc3ccccc3)c2)c2nn[nH]c2n1` [Example 34, 7-((1-Benzyl-1H-pyrazol-4-yl)methyl)-3H-[1,2,3]triazolo[4,5-b]pyridin-5-amine], the IC50 at myeloperoxidase (MPO) [1] was 1 to 100 nM; against myeloperoxidase (MPO) [2], 101 to 999 nM; in assay [3] it was 30 nM.

Consider `Nc1cc(Cc2cn(Cc3ccccc3)nn2)c2nn[nH]c2n1` [Example 52, 7-((1-Benzyl-1H-1,2,3-triazol-4-yl)methyl)-3H-[1,2,3]triazolo[4,5-b]pyridin-5-amine], for which the IC50 is 1 to 100 nM against myeloperoxidase (MPO) [1], 101 to 999 nM against myeloperoxidase (MPO) [2] and 20 nM in assay [3].

In the case of `Nc1cc(Cc2cnn(Cc3ccc4c(c3)CCNC4)c2)c2nn[nH]c2n1` [Example 130, 7-((1-((1,2,3,4-Tetrahydroisoquinolin-6-yl)methyl)-1H-pyrazol-4-yl)methyl)-3H-[1,2,3]triazolo[4,5-b]pyridin-5-amine], the IC50 is 1 to 100 nM against myeloperoxidase (MPO) [1], 1 to 100 nM against myeloperoxidase (MPO) [2] and 8 nM in assay [3].

Take `Nc1cc(Cc2cnn(Cc3ccc(CNC4CC4)cc3)c2)c2nn[nH]c2n1` [Example 185, 7-{[1-({4-[(Cyclopropylamino)methyl]phenyl}methyl)-1H-pyrazol-4-yl]methyl}-3H-[1,2,3]triazolo[4,5-b]pyridin-5-amine]: the results for the IC50 (at myeloperoxidase (MPO) [1]; on myeloperoxidase (MPO) [2]; in assay [3]) were 1 to 100 nM, 101 to 999 nM and 45 nM, respectively.

In the case of `Nc1cc(Cc2cnn(Cc3cccc(C4CCNC4)c3)c2)c2nn[nH]c2n1` (stereo not drawn) [Example 187, 7-[(1-{[3-(Pyrrolidin-3-yl)phenyl]methyl}-1H-pyrazol-4-yl)methyl]-3H-[1,2,3]triazolo[4,5-b]pyridin-5-amine], the IC50 against myeloperoxidase (MPO) [1] is 1 to 100 nM; at myeloperoxidase (MPO) [2], 1 to 100 nM; in assay [3] it was 21 nM.

With `Nc1cc(Cc2cnn(Cc3ccc4c(c3)C(F)(F)CNC4)c2)c2nn[nH]c2n1` [Example 260, 7-({1-[(4,4-Difluoro-1,2,3,4-tetrahydroisoquinolin-6-yl)methyl]-1H-pyrazol-4-yl}methyl)-3H-[1,2,3]triazolo[4,5-b]pyridin-5-amine], the IC50 against myeloperoxidase (MPO) [1] is 1 to 100 nM; at myeloperoxidase (MPO) [2] it was 101 to 999 nM; in assay [3] it was 114 nM.
